Data: patent US20080108622A1, “COMBINATION THERAPY FOR THE TREATMENT OF PAIN” (priority 2006, published 2008)
Entries after “also recorded” stand apart in the source; their conditions may differ.

Legend:
adult male rats = test: Postincisional hypersensitivity model of postoperative pain (paw incision, withdrawal threshold to von Frey filaments); type: in vivo, rat; conditions: intrathecal (i.t.), 24 h after paw incision surgery
Protocol: Animal preparation: Following Animal Care and Use Committee approval, an intrathecal (i.t.) catheter with tip in the lumbar space is inserted as previously described in adult male rats weighing 250 g (Yaksh and Rudy, Physiol Behav. 1976, 7, 1032-1036). One week following the insertion of the i.t. catheter, paw incision surgery is performed as previously described (Brennan et al., Pain 1996, 64, 493-501). Briefly, animals are anesthetized with halothane, and a 1-cm long incision is made in the plantar aspect of the left hind paw starting 0.5 cm from the edge of the heel toward the toe after sterile preparation with 70% ethanol. The plantaris muscle is elevated and incised longitudinally. The wound is closed with 2 mattress sutures of 5.0 silk. Subsequently, withdrawal threshold to von Frey filaments is determined one day after surgery (Chaplan et al., J. Neurosci. Methods, 1994, 53, 55-63). For all testing but pilot dose ranging studies, investigators are blinded to study drug administration. A cut off value of 22 g is used. […]
Single drug injection: For single drug administration, a volume containing 5 μL drug is used, followed by 10 μL of saline. […] Dose response curves are first constructed, and ED40 values for single drugs are then determined at the time of peak effect.
Drug interaction: For the combination of T-62 with morphine and NBQX, two injections are performed since the time of peak effect for morphine and NBQX is 30 min earlier than that of T-62 (T-62 is injected 30 min before drug injections). Paw withdrawal thresholds are determined before surgery, before drug injection, and 30, 60, 90, 120, 150, 180, and 210 min after the second drug injection. […] The dose response curves are then constructed for the combined drugs, and the ED40 values of the combined drugs are calculated at the time point of peak effect. […]
Data analysis: Data are presented as mean ±S.E. Withdrawal threshold data are analyzed by two-way analysis of variance followed by Fisher's LSD test. […] Isobolograms are statistically analyzed by student T test.

[1] = cited from earlier work
male Sprague-Dawley rats = test: Neuropathic pain model (Chung model, spinal nerve ligation, withdrawal threshold to von Frey filaments); type: in vivo, rat; conditions: Chung model of chronic neuropathic pain, FIG. 8; for anti-allodynic effects: intrathecal single injection
Description: Spinal Nerve Ligation: After Animal Care and Use Committee approval, male Sprague-Dawley rats (Harlan, Indianapolis, Ind., USA) weighing 180-200 g undergo anesthesia as previously described by Kim and Chung (Pain 1992, 50, 355-363). Briefly, under general anesthesia with inhalational halothane, the left L5 and L6 spinal nerves are identified through a small laminotomy and tightly ligated. Approximately one week later, an intrathecal catheter is placed under general anesthesia by insertion under direct vision of a polyethylene catheter through a small slit in the dura at the cisterna magnum, and advanced 8.5 cm such that the catheter tip resides in the lower lumbar intrathecal space. Animals are studied approximately one week later. Ligation of the lumbar spinal nerves results in a primarily unilateral increase in the sensitivity to light touch on the operated side. Sensitivity is assessed via application of calibrated von Frey filaments. The withdrawal threshold is determined using an up down method as previously described by Chaplan et al. (J. Neurosci. Methods 1994, 53, 55-63).
Experimental Design: Animals receive, at least 4 weeks after spinal nerve ligation surgery, and at least 1 week after intrathecal catheter insertion, single injections of vehicle (β-cyclodextrin) or the drug substance, using a randomized and blinded protocol. Withdrawal thresholds are determined at intervals for up to 20 hr after injection.

Compound	anti-hypersensitivity effect (reduction of mechanical hypersensitivity) (adult male rats)	anti-allodynic effects (male Sprague-Dawley rats)	other results
CN1CC[C@]23c4c5ccc(O)c4O[C@H]2[C@@H](O)C=C[C@H]3[C@H]1C5 [Morphine, morphine, reference compound]	reduces mechanical hypersensitivity in a time and dose dependent manner	–	–
NS(=O)(=O)c1cccc2c1c([N+](=O)[O-])cc1nc(O)c(O)nc12 [NBQX, 2,3-dihydroxy-6-nitro-7-sulfamoylbenzo(f)quinoxaline, reference compound]	reduces the mechanical hypersensitivity in a time and dose dependent manner	–	–
Nc1sc2c(c1C(=O)c1ccc(Cl)cc1)CCCC2 [T-62, (2-amino-4,5,6,7-tetrahydrobenzo[b]thiophen-3-yl)(4-chlorophenyl)methanone]	reduced mechanical hypersensitivity in a time dependent manner; also recorded: modest effect	dose-dependent anti-allodynic effects	effect on inflammatory and neuropathic pain ([1]; literature (Li et al. 2003, Li et al. 2002, Pan et al. 2001; US 6,248,774, US 6,489,356)): reduce inflammatory and neuropathic pain; oral efficacy ([1]; literature): orally effective; adverse side effects ([1]; literature, compared with administration of adenosine): avoid of the adverse side effects associated with administration of adenosine
Nc1sc2c(c1C(=O)c1ccccc1)CCS2 [formula (Ib)]	–	dose-dependent anti-allodynic effects	–
Nc1sc2c(c1C(=O)c1cccc3ccccc13)CCC2 [formula (Ic)]	–	dose-dependent anti-allodynic effects	relative potency among the three enhancers (male Sprague-Dawley rats): most potent enhancer of the three agents
